Reference: patent US11414429B2, “Compound or pharmaceutically acceptable salt thereof” (RIKEN, priority 2016, dated 2022)

Key:
tankyrase 1 (TNKS 1) = molecular target: T1, tankyrase 1 (TNKS 1) (Homo sapiens, UniProt O95271); experiment: Tankyrase inhibitory activity test (ELISA, self-polyADP ribosylation), tankyrase 1; format: biochemical; details: ELISA, self-polyADP ribosylation; class symbols; read-out: TNKS1 (inhibitory activity against tankyrase 1, IC50 value)
T1 construct: 1,024-1,327aa; made in house; host or cells: cell-free protein synthesis system
How it was run: (§1)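 IC50 was fitted to residual self-polyADP-ribosylation activity, detected by HRP-streptavidin chemiluminescence. Plate-bound Flag fusions (TNKS1 1,024-1,327aa SAM+PARP; TNKS2 613-1,116aa ANK5+SAM+PARP, cell-free synthesized) saw compound for 10 min at room temperature in 50 mM Tris-HCl pH 8.0, 4 mM MgCl2, 0.2 mM DTT. Reaction with 225 μM NAD/25 μM 6-biotin-17-NAD solution ran 45 min at 30 °C.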

tankyrase 2 (TNKS 2) = molecular target: T2, tankyrase 2 (TNKS 2) (Homo sapiens, UniProt Q9H2K2); experiment: Tankyrase inhibitory activity test (ELISA, self-polyADP ribosylation), tankyrase 2; format: biochemical; details: ELISA, self-polyADP ribosylation; class symbols; read-out: TNKS2 (inhibitory activity against tankyrase 2, IC50 value)
T2 construct: 613-1, 116aa; made in house; host or cells: cell-free protein synthesis system
How it was run: as §1

[1] = tested on: human colorectal cancer cell line, COLO-320DM; experiment: Cell proliferation inhibitory activity test (Celltiter-Glo Luminescent Cell Viability Assay); format: cell-based; details: COLO-320DM cells, 96 hours, class symbols, read-out: COLO-320 DM (cell proliferation inhibitory activity, GI50 value)
How it was run: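 GI50 is taken as the concentration halving cell growth versus 1% DMSO control, measured by ATP luminescence. Compound exposure lasted 96 h at 37° C. under 5% CO2, after overnight seeding in RPMI-1640 with 10% FBS and 2 mM glutamine.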

T2 sequence (Q9H2K2 613-1166): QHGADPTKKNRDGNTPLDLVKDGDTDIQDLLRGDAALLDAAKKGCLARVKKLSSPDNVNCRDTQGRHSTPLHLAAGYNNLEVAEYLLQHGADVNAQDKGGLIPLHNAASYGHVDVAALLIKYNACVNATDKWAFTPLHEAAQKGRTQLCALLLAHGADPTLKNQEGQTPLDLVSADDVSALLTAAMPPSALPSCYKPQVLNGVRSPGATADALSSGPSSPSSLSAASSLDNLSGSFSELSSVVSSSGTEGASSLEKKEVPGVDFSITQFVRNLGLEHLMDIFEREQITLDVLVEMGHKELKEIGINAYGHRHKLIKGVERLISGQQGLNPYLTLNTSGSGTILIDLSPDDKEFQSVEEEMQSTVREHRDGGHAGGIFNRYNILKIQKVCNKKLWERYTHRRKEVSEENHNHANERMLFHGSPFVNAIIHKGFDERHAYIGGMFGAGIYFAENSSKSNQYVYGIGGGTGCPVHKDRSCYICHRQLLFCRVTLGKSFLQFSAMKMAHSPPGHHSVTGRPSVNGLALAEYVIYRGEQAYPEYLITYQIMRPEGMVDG
T1 sequence (O95271 1024-1327): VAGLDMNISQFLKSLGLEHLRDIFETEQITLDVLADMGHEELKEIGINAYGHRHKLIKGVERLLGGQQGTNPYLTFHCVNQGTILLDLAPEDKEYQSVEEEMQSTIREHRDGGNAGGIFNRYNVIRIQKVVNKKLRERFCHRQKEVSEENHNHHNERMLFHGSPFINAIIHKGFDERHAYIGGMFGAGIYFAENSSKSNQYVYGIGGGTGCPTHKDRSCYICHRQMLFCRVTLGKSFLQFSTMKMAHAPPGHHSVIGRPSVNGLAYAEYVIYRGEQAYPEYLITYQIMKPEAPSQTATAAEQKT

SMILES | IC50 (tankyrase 1 (TNKS 1)) [nM] | IC50 (tankyrase 2 (TNKS 2)) [nM] | GI50 [1] [nM]
CN1CCCc2c1nc(N1CCC3(CC1)C(=O)N(C)c1cc(N4CCC(C#N)CC4)cc(F)c13)[nH]c2=O [Example 467, 1-[4-fluoro-1-methyl-1′-(8-methyl-4-oxo-3,4,5,6,7,8-hexahydropyrido[2,3-]pyrimidin-2-yl)-2-oxospiro[indole-3,4′-piperidine]-6-yl]piperidine-4-carbonitrile] | 20 to 200 | < 20 | < 100
O=C1N(CC2CCCO2)c2cccc(F)c2C12CCN(c1nc3c(c(=O)[nH]1)CCCN3)CC2 (stereo not drawn) [Example 469, 4-fluoro-1′-(4-hydroxy-5,6,7,8-tetrahydroypyrido[2,3-d]pyrimidin-2-yl)-1-(oxolan-2-ylmethyl)spiro[indole-3,4′-piperidine]-2-one] | 20 to 200 | < 20 | 100 to 600
COc1ccc(F)c2c1N(CC(C)(C)O)CC21CCN(c2nc3c(c(=O)[nH]2)CCCN3)CC1 [Example 473, 2-(4-fluoro-1-(2-hydroxy-2-methylpropyl)-7-methoxyspiro[indoline-3,4′-piperidin]-1′-yl)-5,6,7,8-tetrahydropyeido[2,3-d]pyrimidin-4(3H)-one] | 20 to 200 | < 20 | 600 to 1000
COc1ccc(F)c2c1NCC21CCN(c2nc3c(c(=O)[nH]2)CCCN3)CC1 [Example 474, 2-(4-fluoro-7-methoxyspiro[indoline-3,4′-piperidin]-1′-yl)-5,6,7,8-tetrahydropyrido[2,3-d]pyrimidin-4(3H)-one] | < 20 | < 20 | 100 to 600

Second part, the molecule after the results:

IC50 (tankyrase 1 (TNKS 1)) [nM] | IC50 (tankyrase 2 (TNKS 2)) [nM] | GI50 [1] [nM] | SMILES
20 to 200 | < 20 | < 100 | COC1CCN(c2cc(F)c3c(c2)N(C)C(=O)C32CCN(c3nc4c(c(=O)[nH]3)CCCN4C)CC2)CC1 [Example 465, 4-fluoro-6-(4-methoxypiperidin-1-yl)-1-methyl-1′-(8-methyl-4-oxo-3,4,5,6,7,8-hexahydropyrido[2,3-d]pyrimidin-2-yl)spiro[indole-3,4′-piperidine]-2(1H)-one]
20 to 200 | < 20 | 600 to 1000 | CN1CCCc2c1nc(N1CCC3(CC1)C(=O)N(C)c1cc(N4CCN(C(N)=O)CC4)cc(F)c13)[nH]c2=O [Example 466, 4-[4-fluoro-1-methyl-1′-(8-methyl-4-oxo-3,4,5,6,7,8-hexahydropyrido[2,3-d]pyrimidin-2-yl)-2-oxospiro[indole-3,4′-piperidine]-6-yl]piperazine-1-carboxamide]
< 20 | < 20 | 100 to 600 | COCCN1C(=O)C2(CCN(c3nc4c(c(=O)[nH]3)CCCN4)CC2)c2c(F)cccc21 [Example 470, 4-fluoro-1′-(4-hydroxy-5,6,7,8-tetrahydroxypyrido[2,3-d]pyrimidin-2-yl)-1-(2-methoxyethyl)spiro[indole-3,4′-piperidin]-2-one]
< 20 | < 20 | 600 to 1000 | O=C1OC2(CCN(c3nc4c(c(=O)[nH]3)CCCN4)CC2)c2c(F)cc(N3CCOCC3)cc21 [Example 471, 7-fluoro-1′-(4-hydroxy-6,7-dihydro-5H-pyrido[2,3-d]pyrimidin-2-yl)-6-morpholino-4-ylspiro[2-benzofuran-3,4′-piperidin]-1-one]
< 20 | < 20 | 600 to 1000 | CC1CN(c2cc(F)c3c(c2)C(=O)OC32CCN(c3nc4c(c(=O)[nH]3)CCCN4)CC2)CC(C)O1 (stereo not drawn) [Example 472, 6-(2,6-dimethylmorpholin-4-yl)-4-fluoro-1′-(4-hydroxy-5,6,7,8-tetrahydropyrido[2,3-d]pyrimidin-2-yl) spiro[2-benzofuran-3,4′-piperidin]-1-one]
